From US20200009173A1, “TRIAZOLE-CONTAINING MACROLIDES AND OPHTHALMIC USES THEREFOR” (Tetard, Inc., priority 2017, published 2020)
Values after ≈ are worked out from the molar mass of the structure shown. Where two headings read alike, the source gives them in different places.

Legend:
Peptostreptococcus spp. = assay: MIC, Peptostreptococcus spp.; format: cell-based; details: N = 10
Streptococcus pyogenes = assay: MIC, Streptococcus pyogenes; format: cell-based
H. influenzae = assay: MICs of solithromycin and comparator drugs, H. influenzae (30 species); format: cell-based
Source text: (§1) EXAMPLE. The formulations described herein show overall higher potency against ocular pathogens than commercial standards.
(§2) MICs (μg/ml) of Solithromycin and Comparator Drugs against Bacterial Species

Streptococcus agalactiae = assay: MIC, Streptococcus agalactiae; format: cell-based; details: N = 535
S. pneumoniae = assay: MICs of solithromycin and comparator drugs, S. pneumoniae (30 species); format: cell-based
Source text: as §1, §2

[1] = speed of uptake and ultimate tissue concentration
[2] = test system: phagocytized L. monocytogenes; assay: Activity against phagocytized L. monocytogenes; format: cell-based
Streptococcus mitis = assay: MIC, Streptococcus mitis; format: cell-based; details: N = 73
MSSA = assay: MICs of solithromycin and comparator drugs, MSSA (31 species); format: cell-based
Source text: as §1, §2

P. Acnes = assay: MICs of solithromycin and comparator drugs against P. acnes; format: cell-based
Source text: EXAMPLE. The formulations described herein show overall higher potency against ocular pathogens than commercial standards. MICs (μg/ml) of Solithromycin and Comparator Drugs against P. Acnes (51 Species)

Mycoplasma hominis = assay: MIC, Mycoplasma hominis; format: cell-based; details: N = 13
Streptococcus pneumoniae = assay: MIC, Streptococcus pneumoniae (150 strains); format: cell-based
log P = format: physicochemical
Procedure: Formulated compounds are tested for their transverse diffusive ability through the membrane. Diffusion through biological membranes is directly correlated to the formulation excipients, its physical state (suspension, solution, emulsion, etc.) and its log P. […] For compounds with log P>3, the compound typically permeates the lipid epithelium of the cornea, only to be hindered by the hydrophilic stroma. For an indication like blepharitis, high corneal concentrations achieved with repeat dosing will result in a drug depot, acting like a sustained release system.

Neisseria gonorrhoeae = assay: MIC, Neisseria gonorrhoeae; format: cell-based; details: N = 34
Legionella pneumophila = assay: microbe, parasite or virus in culture; format: cell-based
Moraxella catarrhalis = assay: MIC, Moraxella catarrhalis; format: cell-based; details: N = 21
Mycobacterium avium = assay: MIC, Mycobacterium avium; format: cell-based; details: N = 30
[3] = Corneal permeability, Franz-Cell Diffusion Apparatus; format: in vitro ADME; details: bovine (calf), pH 7
Procedure: EXAMPLE. Corneal Permeability. Corneal permeability is determined using conventional protocols. Briefly, corneal permeability is determined on freshly excised bovine (calf) cornea using a Franz-Cell Diffusion Apparatus generally with n=3/group. Freshly excised calf cornea are stored until use in hydrating solution containing glutathione and buffer. The Apparatus includes a donor chamber on the top where a predetermined volume of the formulation is pipetted and a jacketed receptor cell with a sampling side arm. The joint between the donor and receptor cell is upward-convex, mimicking the shape of the cornea. The corneal membrane is placed on the ball joint with the cornea facing the donor chamber. The Apparatus is clamped to secure the cells with the donor and receptor chambers aligned. […] The volume is recorded. […] Test samples are added in rapid succession by depositing 200 μL of the formulation into each donor chamber using a calibrated pipet and the times recorded. […] Flux can be calculated by the formula: J=Q/(A·t), where Q is the quantity (micrograms) of compound traversing the membrane in time t (minutes), and A is the area of exposed membrane in cm^2. […] After completion of the diffusion, corneas are weighed to determine the quantity of bound test compound in the cornea, and the corneal thicknesses of each cornea is measured at the point of diffusion (the center) using Vernier calipers. […]

[4] = test system: Viridans group streptococci; assay: MIC, Viridans group streptococci; format: cell-based; details: N = 51
[5] = Cutibacterium acnes, 51 species

In the case of CC[C@H]1OC(=O)[C@@](C)(F)C(=O)[C@H](C)[C@@H](O[C@@H]2O[C@H](C)C[C@H](N(C)C)[C@H]2O)[C@](C)(OC)C[C@@H](C)C(=O)[C@H](C)[C@H]2N(CCCCn3cc(-c4cccc(N)c4)nn3)C(=O)O[C@]12C [CEM-101, solithromycin], the “MIC Range” value (Peptostreptococcus spp.) is reported as ≤0.03-0.25^ μg/mL, the MIC50 (Peptostreptococcus spp.; Peptostreptococcus) is reported as 0.06 µg/mL (≈ 0.071 µM) and the MIC90 (Peptostreptococcus spp.; Peptostreptococcus) is reported as 0.25 µg/mL (≈ 0.296 µM). The “MIC Range” value (Streptococcus pyogenes; N = 407 (CEM-101)) was ≤0.03-0.5 ^ μg/mL, the MIC50 (Streptococcus pyogenes; Streptococcus pyogenes) was no more than 0.03 µg/mL and the MIC90 (Streptococcus pyogenes; Streptococcus pyogenes, 100 strains) was 0.03 µg/mL (≈ 0.0355 µM). For the same molecule, the MIC90 (Streptococcus pyogenes; Streptococcus pyogenes, N = 407 (CEM-101), N = 100 (azithromycin)) was no more than 0.03 µg/mL, the “I (intermediate susceptibility)” value (H. influenzae) was 0% and the “MIC Range” value (H. influenzae) was 1 to 4 µg/mL. For the same molecule, the “NS (not susceptible)” value (H. influenzae) was 0%, the “S (susceptible)” value (H. influenzae) was 100% and the MIC50 (H. influenzae; Haemophilus influenzae) was 2 µg/mL (≈ 2.37 µM). For the same molecule, the MIC90 (H. influenzae; Haemophilus influenzae) was 2 µg/mL (≈ 2.37 µM), the “MIC Range” value (Streptococcus agalactiae) was ≤0.03-0.5 ^ μg/mL and the MIC50 (Streptococcus agalactiae; Streptococcus agalactiae) was no more than 0.03 µg/mL. For the same molecule, the MIC90 (Streptococcus agalactiae; Streptococcus agalactiae) was no more than 0.03 µg/mL, the “I (intermediate susceptibility)” value (S. pneumoniae) was 0% and the “MIC Range” value (S. pneumoniae) was ≤0.001-0.25 ^ μg/ml. The “NS (not susceptible)” value (S. pneumoniae) was 0%, the “S (susceptible)” value (S. pneumoniae) was 100% and the MIC50 (S. pneumoniae; Streptococcus pneumoniae) was 0.002 µg/mL (≈ 0.00237 µM). The MIC90 (S. pneumoniae; Streptococcus pneumoniae) was 0.12 µg/mL (≈ 0.142 µM), the “tissue distribution relative to AZI” value [1] was 10 fold and the “potency relative to azithromycin” value [2] was 50 fold. The “MIC Range” value (Streptococcus mitis) was ≤0.03-0.25^ μg/mL, the MIC50 (Streptococcus mitis; Streptococcus mitis) was no more than 0.03 µg/mL and the MIC90 (Streptococcus mitis; Streptococcus mitis) was 0.06 µg/mL (≈ 0.071 µM). For the same molecule, the “I (intermediate susceptibility)” value (MSSA) was 0%, the “MIC Range” value (MSSA) was 0.004 to 64 µg/mL and the “NS (not susceptible)” value (MSSA) was 6%. The “S (susceptible)” value (MSSA) was 94%, the MIC50 (MSSA; Staphylococcus aureus, MSSA) was 0.015 µg/mL (≈ 0.0178 µM) and the MIC90 (MSSA; Staphylococcus aureus, MSSA) was 0.03 µg/mL (≈ 0.0355 µM). The “MIC Range” value (P. Acnes) was no more than 0.002 to 0.25 µg/mL, the MIC50 (P. Acnes; [5]) was 0.015 µg/mL (≈ 0.0178 µM) and the MIC90 (P. Acnes; [5]) was 0.06 µg/mL (≈ 0.071 µM). For the same molecule, the MIC50 (Mycoplasma hominis; Metamycoplasma hominis) was 0.004 µg/mL (≈ 0.00473 µM), the MIC90 (Mycoplasma hominis; Metamycoplasma hominis) was 0.008 µg/mL (≈ 0.00947 µM) and the “MIC Range” value (Mycoplasma hominis) was 0.002 to 0.008 µg/mL. The MIC90 (Streptococcus pneumoniae; N = 150) was 0.25 µg/mL (≈ 0.296 µM), the “MIC Range” value (Streptococcus pneumoniae; N = 150) was no more than 0.008 to 0.5 µg/mL and the MIC90 (Streptococcus pneumoniae; Streptococcus pneumoniae, 150 strains, read-out: MIC90) was 0.25 µg/mL (≈ 0.296 µM). The MIC50 (Streptococcus pneumoniae; Streptococcus pneumoniae, N = 150) was 0.015 µg/mL (≈ 0.0178 µM), the logP (log P) was 4.2 and the “MIC Range” value (Neisseria gonorrhoeae) was 0.03 to 0.25 µg/mL. The MIC50 (Neisseria gonorrhoeae; Neisseria gonorrhoeae) was 0.06 µg/mL (≈ 0.071 µM), the MIC90 (Neisseria gonorrhoeae; Neisseria gonorrhoeae) was 0.12 µg/mL (≈ 0.142 µM) and the MIC50 (Legionella pneumophila; Legionella pneumophila) was no more than 0.015 µg/mL. The MIC90 (Legionella pneumophila; Legionella pneumophila) was no more than 0.015 µg/mL, the MIC90 (Legionella pneumophila; N = 30) was no more than 0.015 µg/mL and the “MIC Range” value (Legionella pneumophila; N = 30) was no more than 0.015 µg/mL. For the same molecule, the MIC50 (Moraxella catarrhalis; Moraxella catarrhalis) was 0.12 µg/mL (≈ 0.142 µM), the MIC90 (Moraxella catarrhalis; Moraxella catarrhalis) was 0.12 µg/mL (≈ 0.142 µM) and the “MIC Range” value (Moraxella catarrhalis) was no more than 0.008 to 0.5 µg/mL. The MIC50 (Mycobacterium avium; Mycobacterium avium) was 1 µg/mL (≈ 1.18 µM), the MIC90 (Mycobacterium avium; Mycobacterium avium) was 1 µg/mL (≈ 1.18 µM) and the “MIC Range” value (Mycobacterium avium) was 1 µg/mL (≈ 1.18 µM). The “concentration in receptor fluid (therapeutically effective)” value ([3]; 1 h) was no less than 1000 ng/mL, the “time after administration at which drug was observed in receptor fluid” value [3] was no more than 1 h and the MIC50 [4] was no more than 0.008 µg/mL. The MIC90 [4] was 0.06 µg/mL (≈ 0.071 µM) and the “MIC Range” value [4] was ≤0.008-0.12 ^ μg/mL.
